In ChEMBL document CHEMBL4190322, “Structure-based development of novel triazoles and related thiazolotriazoles as anticancer agents and Cdc25A/B phosphatase inhibitors. Synthesis, in vitro biological evaluation, molecular docking and in silico ADME-T studies” (Eur J Med Chem, 2017):
Active and inactive are the calls of the source. The rule behind the calls is not given here.

Assays:
[1] = test system: PC-3; assay: Growth inhibition of human PC3 cells at 10 uM after 48 hrs by SRB assay relative to control; format: functional; conditions: PC-3, 48 h, read-out: GI
[2] = test system: A549; assay: Growth inhibition of human A549 cells at 10 uM after 48 hrs by SRB assay relative to control; format: functional; conditions: for inhibition of growth at 10 µM: A549, 48 h, read-out: GI
[3] = test system: SNB-75; assay: Growth inhibition of human SNB75 cells at 10 uM after 48 hrs by SRB assay relative to control; format: functional; conditions: SNB-75, 48 h, read-out: GI
[4] = test system: SNB-19; assay: Growth inhibition of human SNB19 cells at 10 uM after 48 hrs by SRB assay relative to control; format: functional; conditions: for inhibition of growth at 10 µM: SNB-19, 48 h, read-out: GI
[5] = test system: 786-0; assay: Growth inhibition of human 786-0 cells at 10 uM after 48 hrs by SRB assay relative to control; format: functional; conditions: for inhibition of growth at 10 µM: 786-0, 48 h, read-out: GI
[6] = test system: OVCAR-3; assay: Growth inhibition of human OVCAR3 cells at 10 uM after 48 hrs by SRB assay relative to control; format: functional; conditions: for inhibition of growth at 10 µM: OVCAR-3, 48 h, read-out: GI
[7] = test system: LOX IMVI; assay: Growth inhibition of human LOXIMVI cells at 10 uM after 48 hrs by SRB assay relative to control; format: functional; conditions: read-out: GI
[8] = test system: Hs-578T; assay: Growth inhibition of human Hs 578T cells at 10 uM after 48 hrs by SRB assay relative to control; format: functional; conditions: for inhibition of growth at 10 µM: read-out: GI
[9] = test system: HOP-62; assay: Growth inhibition of human HOP62 cells at 10 uM after 48 hrs by SRB assay relative to control; format: functional; conditions: HOP-62, 48 h, read-out: GI
[10] = test system: HT-29; assay: Growth inhibition of human HT-29 cells at 10 uM after 48 hrs by SRB assay relative to control; format: functional; conditions: HT-29, 48 h, read-out: GI
[11] = test system: MOLT-4; assay: Growth inhibition of human MOLT4 cells at 10 uM after 48 hrs by SRB assay relative to control; format: functional; conditions: MOLT-4, 48 h, read-out: GI
[12] = test system: NCI/ADR-RES; assay: Growth inhibition of human NCI/ADR-RES cells at 10 uM after 48 hrs by SRB assay relative to control; format: functional; conditions: read-out: GI
[13] = test system: OVCAR-8; assay: Growth inhibition of human OVCAR8 cells at 10 uM after 48 hrs by SRB assay relative to control; format: functional; conditions: for inhibition of growth at 10 µM: OVCAR-8, 48 h, read-out: GI
[14] = Cytotoxicity against human MCF10A cells after 24 hrs by MTT assay; format: cell-based, MCF-10A; conditions: read-out: LC50
[15] = test system: UO-31; assay: Growth inhibition of human UO31 cells at 10 uM after 48 hrs by SRB assay relative to control; format: functional; conditions: UO-31, 48 h, read-out: GI
[16] = test system: NCI-H23; assay: Growth inhibition of human NCI-H23 cells at 10 uM after 48 hrs by SRB assay relative to control; format: functional; conditions: NCI-H23, 48 h, read-out: GI
[17] = test system: NCI-H322M; assay: Growth inhibition of human NCI-H322M cells at 10 uM after 48 hrs by SRB assay relative to control; format: functional; conditions: read-out: GI

| Compound | inhibition of growth at 10 µM [1] [%] | inhibition of growth at 10 µM [2] [%] | inhibition of growth at 10 µM [3] [%] | inhibition of growth at 10 µM [4] [%] | inhibition of growth at 10 µM [5] [%] | inhibition of growth at 10 µM [6] [%] | inhibition of growth at 10 µM [7] [%] | inhibition of growth at 10 µM [8] [%] | inhibition of growth at 10 µM [9] [%] | inhibition of growth at 10 µM [10] [%] | inhibition of growth at 10 µM [11] [%] | inhibition of growth at 10 µM [12] [%] | growth inhibition (GI) [13] | CC50 at 24 h [14] [µM] | inhibition of growth at 10 µM [15] [%] | inhibition of growth at 10 µM [16] [%] | inhibition of growth at 10 µM [17] [%] | growth inhibition (GI) [5] | growth inhibition (GI) [8] | inhibition of growth at 10 µM [13] [%] | also measured |
| --- | --- | --- | --- | --- | --- | --- | --- | --- | --- | --- | --- | --- | --- | --- | --- | --- | --- | --- | --- | --- | --- |
| COc1ccc(Cc2nnc(SCC(=O)c3ccc(Cl)cc3)n2-c2ccccc2)cc1 | 36.2 | 4.57 | 12.8 | 5 | 7.77 | 4.64 | 3.4 | 3.43 | 1.26 | 2.08 | 24 | 10.3 | inactive | > 100 | 20.1 | 8.1 | 8.4 | – | – | – | – |
| COc1ccc(Cc2nnc(SCC(=O)Nc3ccc(Cl)cc3)n2Cc2ccccc2)cc1 | 47.3 | 1.05 | 4 | 6.27 | 11.4 | 3 | 12.2 | 2.82 | 12 | 10 | 36 | 14.3 | inactive | > 100 | 31.7 | 9 | 14.5 | – | – | – | – |
| COc1ccc(Cc2nnc(SCC(=O)Nc3ccc(Cl)cc3)n2-c2ccccc2)cc1 | 45.2 | – | 8.27 | 3 | – | – | 11.9 | – | 8.3 | 2.73 | 42.3 | 11.4 | inactive | > 100 | 27.2 | 8.87 | 8.75 | inactive | inactive | – | growth inhibition (GI) [2]: inactive; growth inhibition (GI) [6]: inactive |
| COc1ccc(Cc2nnc(SCC(=O)c3ccc(Cl)cc3)n2-c2ccc(C)cc2)cc1 | 26 | 4.54 | 11.4 | – | – | 4.28 | 1.19 | – | 11.7 | 4.07 | 32.7 | 12 | – | > 100 | 14 | 5.6 | 4 | inactive | inactive | 1.7 | growth inhibition (GI) [4]: inactive |
| COc1ccc(Cc2nnc(SCC(=O)c3ccc(Cl)cc3)n2Cc2ccccc2)cc1 | 51.8 | 16.5 | 14.4 | 9.2 | 3.19 | 18.4 | 6.87 | 20 | 11.2 | 3 | 28.6 | 21.5 | – | > 100 | 34.7 | 13.6 | 26 | – | – | 10 | – |
